Results reported in patent publication US7462713B2, “Tricyclic compounds protein kinase inhibitors for enhancing the efficacy of anti-neoplastic agents and radiation therapy” (Agouron Pharmaceuticals, Inc., priority 2003, dated 2008).
Structures can show the parent of a compound that is named as a salt.

Biological target: T1, kinase domain of human CHK-1 (KH289) (Homo sapiens, UniProt O14757)
T1 construct: kinase domain of human CHK-1 (KH289), amino acid residues 1-289; made in house; host or cells: baculovirus (Bac-to-Bac); Hi-S insect cells for protein production, Sf9/Sf21 for virus amplification
T1 sequence (O14757 1-289): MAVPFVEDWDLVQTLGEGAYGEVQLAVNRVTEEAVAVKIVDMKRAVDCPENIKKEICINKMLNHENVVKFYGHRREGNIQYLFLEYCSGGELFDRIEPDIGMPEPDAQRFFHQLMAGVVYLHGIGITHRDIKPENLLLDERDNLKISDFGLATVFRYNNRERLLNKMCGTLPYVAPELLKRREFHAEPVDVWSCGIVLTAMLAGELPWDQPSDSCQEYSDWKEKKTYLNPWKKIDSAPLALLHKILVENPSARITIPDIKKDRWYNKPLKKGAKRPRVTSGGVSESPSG
Experiment: CHK-1 coupled spectrophotometric enzyme assay (Syntide-2, PK/LDH, NADH oxidation)
Type: biochemical
Conditions: 10 nM KH289, 0.15 mM ATP, 0.125 mM Syntide-2, pH 7.5
From the text: As previously detailed in European Patent Application No. 1 096 014 A2 (filed Oct. 31, 2000), the C-terminally His-tagged kinase domain of human CHK-1 (KH289), amino acid residues 1-289, can be expressed using the baculovirus/insect cell system. […] The Bac-to-Bac system (Life Technologies) can be used to generate recombinant baculovirus for the expression of KH289 as per instructions. Recombinant viruses can be confirmed by PCR for the presence of CHK-1 cDNA insertion. […] Sf9 insect cells (Invitrogen, Carlsbad, Calif., USA) can be used for initial amplification of recombinant virus stock. High titer stocks of recombinant viruses can be generated by 2 to 3 rounds of amplification using Sf21 insect cells. Hi-S insect cells (Invitrogen, Carlsbad, Calif., USA) can be used for protein production. Both Sf9 and Hi-S cell lines can be adapted to grow in insect medium containing 1% Fetal Bovine Serum (Life Technologies, Grand Island, N.Y., USA). The viral stock was stored at […] and used for large-scale protein production within 2 months to avoid viral instability. For protein production, infected Hi-S cells can be harvested by centrifugation and stored at −80° C. From these cells, 6X-His tagged KH289 (identified by SDS-PAGE) can be obtained after purification and can be flash-frozen in liquid N2 and stored at −80° C.
As previously detailed in European Patent Application No. 1 096 014 A2 (filed Oct. 31, 2000), the enzymatic activity of a kinase can be measured by its ability to catalyze the transfer of a phosphate residue from a nucleoside triphosphate to an amino acid side chain in a selected protein target. The conversion of ATP to ADP generally accompanies the catalytic reaction. Herein, a synthetic substrate peptide, Syntide-2, having amino acid sequence […] can be utilized. The production of ADP from ATP that accompanies phosphoryl transfer to the substrate can be coupled to oxidation of NADH using phosphoenolpyruvate (PEP) through the actions of pyruvate kinase (PK) and lactic dehydrogenase (LDH). The oxidation of NADH can be monitored by following the decrease of absorbance at 340 nm (e340=6.22 cm-1 mM-1) using a HP8452 spectrophotometer. Typical reaction solutions contained: 4 mM PEP, 0.15 mM NADH, 28 units of LDH/mL, 16 units of PK/mL, 3 mM DTT, 0.125 mM Syntide-2, 0.15 mM ATP and 25 mM MgCl2 in 50 mM TRIS pH 7.5; 400 mM NaCl. Assays can be initiated with 10 nM of kinase domain of CHK-1, KH289. Ki values can be determined by measuring initial enzyme activity in the presence of varying concentrations of inhibitors. The data can be analyzed using Enzyme Kinetic and Kaleidagraph software.

| Compound | Ki |
| --- | --- |
| Cn1cc(-c2[nH]c3cc(NC(=O)[C@H](N)C4Cc5ccccc5C4)cc4c3c2C=NNC4=O)cn1 [Example 255, (2R)-2-Amino-2-indan-2-yl-N-[2-(1-methyl-1H-pyrazol-4-yl)-6-oxo-5,6-dihydro-1H-[1,2]diazepino[4,5,6-cd]indol-8-yl]-acetamide (hydrochloric salt)] | 0.14 nM |
| Cn1cc(-c2[nH]c3cc(NC(=O)[C@H](N)CCc4ccccc4)cc4c3c2C=NNC4=O)cn1 [Example 256, (2R)-2-Amino-N-[2-(1-methyl-1H-pyrazol-4-yl)-6-oxo-5,6-dihydro-1H-[1,2]diazepino[4,5,6-cd]indol-8-yl]-4-phenyl-butylamide (hydrochloric salt)] | 0.78 nM |
| N[C@@H](C(=O)Nc1cc2c3c(c[nH]c3c1)C=NNC2=O)C1Cc2ccccc2C1 [Example 257, (2R)-2-Amino-2-indan-2-yl-N-(6-oxo-5,6-dihydro-1H-[1,2]diazepino[4,5,6-cd]indol-8-yl)-acetamide (hydrochloric salt)] | 0.27 nM |
| N[C@H](CCc1ccccc1)C(=O)Nc1cc2c3c(c(Br)[nH]c3c1)C=NNC2=O [Example 259, (2R)-2-Amino-N-(2-bromo-6-oxo-5,6-dihydro-1H-[1,2]diazepino[4,5,6-cd]indol-8-yl)-4-phenyl-butylamide (hydrochloric salt)] | 0.99 nM |
| Cc1ccc(-c2[nH]c3cc(NC(=O)[C@H](N)C4Cc5ccccc5C4)cc4c3c2C=NNC4=O)cn1 [Example 260, (2R)-2-Amino-2-indan-2-yl-N-[2-(6-methyl-pyridin-3-yl)-6-oxo-5,6-dihydro-1H-[1,2]diazepino[4,5,6-cd]indol-8-yl]-acetamide (hydrochloric salt)] | 0.42 nM |
| N[C@H](CCc1ccccc1)C(=O)Nc1cc2c3c(c(Cl)[nH]c3c1)C=NNC2=O [Example 261, (2R)-2-Amino-N-(2-chloro-6-oxo-5,6-dihydro-1H-[1,2]diazepino[4,5,6-cd]indol-8-yl)-4-phenyl-butylamide (hydrochloric salt)] | 2 nM |
| Cn1cc(-c2[nH]c3cc(NC(=O)[C@]4(N)C[C@H]4c4ccccc4)cc4c3c2C=NNC4=O)cn1 [Example 262, (1S,2S)-1-Amino-2-phenyl-cyclopropanecarboxylic acid [2-(1-methyl-1H-Pyrazol-4-yl)-6-oxo-5,6-dihydro-1H-[1,2]diazepino[4,5,6-cd]indol-8-yl]-amide (hydrochloric salt)] | 0.3 nM |
| Cn1cnc(-c2[nH]c3cc(NC(=O)[C@H](N)CCc4ccccc4)cc4c3c2C=NNC4=O)c1 [Example 266, (2R)-2-Amino-N-[2-(1-methyl-1H-imidazol-4-yl)-6-oxo-5,6-dihydro-1H-[1,2]diazepino[4,5,6-cd]indol-8-yl]-4-phenyl-butylamide (hydrochloric salt)] | 0.29 nM |
| Cn1cnc(-c2[nH]c3cc(NC(=O)[C@H](N)C4CCCCC4)cc4c3c2C=NNC4=O)c1 [Example 271, (2R)-2-Amino-2-cyclohexyl-N-[2-(1-methyl-1H-imidazol-4-yl)-6-oxo-5,6-dihydro-1H-[1,2]diazepino[4,5,6-cd]indol-8-yl]-acetamide (hydrochloric salt)] | 1.2 nM |
| (2R)-2-Amino-2-indan-2-yl-N-[2-(1-methyl-1H-imidazol-4-yl)-6-oxo-5,6-dihydro-1H-[1,2]diazepino[4,5,6-cd]indol-8-yl]-acetamide (hydrochloric salt) [Example 272] | 0.2 nM |

Now from value to compound:

| Ki | Compound |
| --- | --- |
| 0.43 nM | Cn1cc(-c2[nH]c3cc(NC(=O)[C@H](N)COc4ccc(F)cc4)cc4c3c2C=NNC4=O)cn1 [Example 263, (2R)-2-Amino-3-(4-fluoro-phenoxy)-N-[2-(1-methyl-1H-pyrazol-4-yl)-6-oxo-5,6-dihydro-1H-[1,2]diazepino[4,5,6-cd]indol-8-yl]-propionamide (hydrochloric salt)] |
| 0.48 nM | Cn1cc(-c2[nH]c3cc(NC(=O)[C@H](N)COc4ccccc4)cc4c3c2C=NNC4=O)cn1 [Example 264, (2R)-2-Amino-N-[2-(1-methyl-1H-pyrazol-4-yl)-6-oxo-5,6-dihydro-1H-[1,2]diazepino[4,5,6-cd]indol-8-yl]-3-phenoxy-propionamide (hydrochloric salt)] |
| 0.73 nM | N[C@@H](C(=O)Nc1cc2c3c(c(Cl)[nH]c3c1)C=NNC2=O)C1Cc2ccccc2C1 [Example 265, (2R)-2-Amino-N-(2-chloro-6-oxo-5,6-dihydro-1H-[1,2]diazepino[4,5,6-cd]indol-8-yl)-2-indan-2-yl-acetamide (hydrochloric salt)] |
| 0.78 nM | Cc1ccc(-c2[nH]c3cc(NC(=O)[C@H](N)CCc4ccccc4)cc4c3c2C=NNC4=O)cn1 [Example 267, (2R)-2-Amino-N-[2-(6-methyl-pyridin-3-yl)-6-oxo-5,6-dihydro-1H-[1,2]diazepino[4,5,6-cd]indol-8-yl]-4-phenyl-butylamide (hydrochloric salt)] |
| 0.01 nM | Cc1cc(-c2[nH]c3cc(NC(=O)[C@H](N)CCc4ccccc4)cc4c3c2C=NNC4=O)on1 [Example 268, (2R)-2-Amino-N-[2-(3-methyl-isoxazol-5-yl)-6-oxo-5,6-dihydro-1H-[1,2]diazepino[4,5,6-cd]indol-8-yl]-4-phenyl-butylamide (hydrochloric salt)] |
| 0.15 nM | Cc1cc(-c2[nH]c3cc(NC(=O)[C@H](N)C4Cc5ccccc5C4)cc4c3c2C=NNC4=O)on1 [Example 269, (2R)-2-Amino-2-indan-2-yl-N-[2-(3-methyl-isoxazol-5-yl)-6-oxo-5,6-dihydro-1H-[1,2]diazepino[4,5,6-cd]indol-8-yl]-acetamide] |
| 0.79 nM | Cn1cc(-c2[nH]c3cc(NC(=O)CNCc4ccccc4)cc4c3c2C=NNC4=O)cn1 [Example 270, 2-Benzylamino-N-[2-(1-methyl-1H-pyrazol-4-yl)-6-oxo-5,6-dihydro-1H-[1,2]diazepino[4,5,6-cd]indol-8-yl]-acetamide (hydrochloric salt)] |
| 0.46 nM | Cn1cc(-c2[nH]c3cc(NC(=O)[C@H](N)c4ccc(F)cc4)cc4c3c2C=NNC4=O)cn1 [Example 273, (2R)-2-Amino-2-(4-fluoro-phenyl)-N-[2-(1-methyl-1H-pyrazol-4-yl)-6-oxo-5,6-dihydro-1H-[1,2]diazepino[4,5,6-cd]indol-8-yl]-acetamide (hydrochloric salt)] |
| 2 nM | CN(CC(=O)Nc1cc2c3c(c(-c4cnn(C)c4)[nH]c3c1)C=NNC2=O)Cc1ccccc1 [Example 274, 2-(Benzyl-methyl-amino)-N-[2-(1-methyl-1H-pyrazol-4-yl)-6-oxo-5,6-dihydro-1H-[1,2]diazepino[4,5,6-cd]indol-8-yl]-acetamide] |
| 7 nM | O=C1NN=Cc2c[nH]c3cc(OCC4CC4c4ccccc4)cc1c23 (centres unmarked) [Example 275, 8-[(2-phenylcyclopropyl)methoxy]-1,5-dihydro-6H-[1,2]diazepino[4,5,6-cd]indol-6-one] |
| 4.5 nM | N[C@H](CCc1ccccc1)C(=O)Nc1cc2c3c(c[nH]c3c1)C=NNC2=O [Example 276, (2R)-2-Amino-N-(6-oxo-5,6-dihydro-1H-[1,2]diazepino[4,5,6-cd]indol-8-yl)-4-Phenyl-butylamide (hydrochloric salt)] |
| 0.55 nM | N[C@H](CCc1ccccc1)C(=O)Nc1cc2c3c(c(-c4ccccn4)[nH]c3c1)C=NNC2=O [Example 277, (2R)-2-amino-N-(6-oxo-2-pyridin-2-yl-5,6-dihydro-1H-[1,2]diazepino[4,5,6-cd]indol-8-yl)-4-phenylbutanamide] |
| 0.47 nM | N[C@@H](C(=O)Nc1cc2c3c(c(-c4ccccn4)[nH]c3c1)C=NNC2=O)C1Cc2ccccc2C1 [Example 278, (2R)-2-amino-2-(2,3-dihydro-1H-inden-2-yl)-N-(6-oxo-2-pyridin-2-yl-5,6-dihydro-1H-[1,2]diazepino[4,5,6-cd]indol-8-yl)acetamide (hydrochloric salt)] |
